The subject of the experiment is P388 leukemia ip, CD2F1 mice, survival T/C. Nature of the experiment: NCI In Vivo Anticancer Drug Screen. Data for tumor model P388 Leukemia (intraperitoneal) in CD2F1 (CDF1) mice. The conditions noted are these: endpoint: median survival time, higher = longer survival. The essentials: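 Mice carrying the transplanted tumor received test compound or vehicle. Survival was recorded in each group, and the value is the treated-group measurement divided by that of the vehicle-treated control group.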

[1] abbreviates: dose: 50.0 mg/kg/injection, schedule: Q01DX009 (ip), vehicle: saline.
Setting [2] is: dose: 100.0 mg/kg/injection, schedule: Q01DX009 (ip), vehicle: saline.
Setting [3] is: dose: 200.0 mg/kg/injection, schedule: Q01DX009 (ip), vehicle: saline.
Setting [4] is: dose: 50.0 mg/kg/injection, schedule: Q01DX005 (ip), vehicle: saline with Tween-80.
Where [5] appears, read: dose: 100.0 mg/kg/injection, schedule: Q01DX005 (ip), vehicle: saline with Tween-80.
[6] abbreviates: dose: 200.0 mg/kg/injection, schedule: Q01DX005 (ip), vehicle: saline with Tween-80.
[7] abbreviates: dose: 60.0 mg/kg/injection, schedule: Q01DX005 (ip), vehicle: saline with Tween-80.
[8] abbreviates: dose: 120.0 mg/kg/injection, schedule: Q01DX005 (ip), vehicle: saline with Tween-80.
[9] abbreviates: dose: 240.0 mg/kg/injection, schedule: Q01DX005 (ip), vehicle: saline with Tween-80.
Where [10] appears, read: dose: 12.5 mg/kg/injection, schedule: Q01DX009 (ip), vehicle: saline.
The mark [11] stands for this setting: dose: 25.0 mg/kg/injection, schedule: Q01DX009 (ip), vehicle: saline.
Where [12] appears, read: dose: 50.0 mg/kg/injection, schedule: Q01DX009 (ip), vehicle: saline with Tween-80.
Where [13] appears, read: dose: 25.0 mg/kg/injection, schedule: Q01DX009 (ip), vehicle: saline with Tween-80.
[14] abbreviates: dose: 60.0 mg/kg/injection, schedule: Q01DX005 (ip), vehicle: Klucel (hydroxypropylcellulose) (HPC).
The mark [15] stands for this setting: dose: 120.0 mg/kg/injection, schedule: Q01DX005 (ip), vehicle: Klucel (hydroxypropylcellulose) (HPC).
Setting [16] is: dose: 240.0 mg/kg/injection, schedule: Q01DX005 (ip), vehicle: Klucel (hydroxypropylcellulose) (HPC).

Several values for one entry are separate records, joined by “and”; a condition that tells them apart may be missing. Identical values can stand only once. Inconclusive results and toxic doses are left out.

Consider `Cn1nnc2c1CN=CN2`, for which the T/C runs as follows: under setting [1], 117 % of control; under setting [2], 103 % of control; under setting [3], 112 % of control.

As for `CN1C(=O)C(C)(C)CN(c2ccccc2)C1=S`, the T/C is, setting by setting: under setting [4], 100 % of control; under setting [5], 108 % of control; under setting [6], 103 % of control.

For `O=C1CN(/N=C/c2ccc(-c3ccc(F)cc3)o2)C(=O)N1`, the T/C (dose: 50.0 mg/kg/injection, schedule: Q01DX001 (ip), vehicle: saline with Tween-80) is 103 % of control; the T/C (dose: 100.0 mg/kg/injection, schedule: Q01DX001 (ip), vehicle: saline with Tween-80) is 100 % of control; the T/C (dose: 200.0 mg/kg/injection, schedule: Q01DX001 (ip), vehicle: saline with Tween-80) is 100 % of control; the T/C (dose: 400.0 mg/kg/injection, schedule: Q01DX001 (ip), vehicle: saline with Tween-80) was 100 % of control.

Regarding `C=C1[C@@]2(O)CCCC[C@@H]2C[N+]1(C)C`, the T/C was 91 % of control under setting [1], 90 % of control under setting [2] and 95 % of control under setting [3].

For the compound `O=C(Nc1ccc(Cl)cc1)Nc1nnc(-c2ccccc2Br)o1`, the T/C was 105 % of control under setting [7], 94 % of control under setting [8] and 95 % of control under setting [9].

For the compound `CCOC(=O)CCN(C(C)=O)C(CC(C)C)C(=O)OCC` (stereo unspecified), the T/C reads like this: under setting [4], 98 % of control; under setting [5], 105 % of control; under setting [6], 105 % of control.

Consider `COc1ccc(CN)cc1OC`, for which the T/C reads like this: under setting [2], 100 % of control; under setting [3], 105 % of control.

Take `CS(=O)(=O)OCCCCOS(C)(=O)=O`: the T/C is, setting by setting: (dose: 3.75 mg/kg/injection, schedule: Q01DX009 (ip), vehicle: saline with Tween-80) 90 % of control; (dose: 3.75 mg/kg/injection, schedule: Q03HX008 (ip), vehicle: saline with Tween-80) 104 % of control; (dose: 3.75 mg/kg/injection, schedule: Q03HX016 (ip), vehicle: saline with Tween-80) 100 % of control; (dose: 3.75 mg/kg/injection, schedule: Q03HX024 (ip), vehicle: saline with Tween-80) 100 % of control; (dose: 7.5 mg/kg/injection, schedule: Q03HX008 (ip), vehicle: saline with Tween-80) 109 % of control; (dose: 7.5 mg/kg/injection, schedule: Q03HX016 (ip), vehicle: saline with Tween-80) 100 % of control. Besides, the T/C reads like this: (dose: 7.5 mg/kg/injection, schedule: Q03HX024 (ip), vehicle: saline with Tween-80) 100 % of control; (dose: 15.0 mg/kg/injection, schedule: Q01DX009 (ip), vehicle: saline with Tween-80) 90 % of control; (dose: 15.0 mg/kg/injection, schedule: Q01DX009 (oral), vehicle: saline with Tween-80) 104 % of control; (dose: 15.0 mg/kg/injection, schedule: Q03HX008 (ip), vehicle: saline with Tween-80) 109 % of control; (dose: 15.0 mg/kg/injection, schedule: Q03HX016 (ip), vehicle: saline with Tween-80) 109 % of control; (dose: 15.0 mg/kg/injection, schedule: Q03HX024 (ip), vehicle: saline with Tween-80) 113 % of control. For the same compound, the T/C was 108 % of control (dose: 25.0 mg/kg/injection, schedule: Q01DX005 (ip), vehicle: saline with Tween-80); 110 % of control (dose: 30.0 mg/kg/injection, schedule: Q01DX001 (ip), vehicle: saline with Tween-80); 100 % of control (dose: 30.0 mg/kg/injection, schedule: Q01DX009 (ip), vehicle: saline with Tween-80); 104 % of control (dose: 30.0 mg/kg/injection, schedule: Q01DX009 (oral), vehicle: saline with Tween-80); 109 % of control (dose: 30.0 mg/kg/injection, schedule: Q03HX008 (ip), vehicle: saline with Tween-80); 100 % of control (dose: 30.0 mg/kg/injection, schedule: Q03HX016 (ip), vehicle: saline with Tween-80). Further, the T/C by setting is: (dose: 30.0 mg/kg/injection, schedule: Q04DX003 (ip), vehicle: saline with Tween-80) 90 % of control; (dose: 30.0 mg/kg/injection, schedule: Q08DX002 (ip), vehicle: saline with Tween-80) 105 % of control; under setting [4], 113 % of control and 93 % of control; (dose: 60.0 mg/kg/injection, schedule: Q01DX001 (ip), vehicle: saline with Tween-80) 110 % of control; (dose: 60.0 mg/kg/injection, schedule: Q01DX001 (oral), vehicle: saline with Tween-80) 100 % of control; (dose: 60.0 mg/kg/injection, schedule: Q08DX002 (ip), vehicle: saline with Tween-80) 100 % of control. Besides, under “dose: 240.0 mg/kg/injection, schedule: Q08DX002 (ip), vehicle: saline with Tween-80”, the T/C was 100 % of control.

As for `CCc1c(NCCO)c(C(=O)NCCO)c2nc3ccccc3n2c1NCCO`, the T/C under setting [7] is 101 % of control, the T/C under setting [8] was 99 % of control and the T/C under setting [9] is 99 % of control.

Turning to `CC(=O)SC12CCCN1C(=O)C1(SC(C)=O)CCCN1C2=O` (stereo unspecified), the T/C by setting is: (dose: 6.25 mg/kg/injection, schedule: Q01DX009 (ip), vehicle: saline) 98 % of control; under setting [10], 104 % of control; under setting [11], 104 % of control; under setting [1], 103 % of control; under setting [2], 111 % of control.

`Cc1noc(NS(=O)(=O)c2ccc(N=Nc3cc(N=Nc4ccc(S(=O)(=O)Nc5onc(C)c5C)cc4)c4c(NC(=O)C(Cl)Cl)cccc4c3OC(=O)C(Cl)Cl)cc2)c1C` (tested in a mixture with another compound): the T/C is, setting by setting: under setting [12], 100 % of control and 106 % of control; (dose: 100.0 mg/kg/injection, schedule: Q01DX009 (ip), vehicle: saline with Tween-80) 104 % of control and 106 % of control.

For the compound `CC(C)Cc1cc(-c2cc(CC(C)C)on2)no1`, the T/C is, setting by setting: (dose: 60.0 mg/kg/injection, schedule: Q01DX005 (ip), vehicle: saline) 100 % of control; (dose: 120.0 mg/kg/injection, schedule: Q01DX005 (ip), vehicle: saline) 104 % of control; (dose: 240.0 mg/kg/injection, schedule: Q01DX005 (ip), vehicle: saline) 100 % of control.

For `C/C(=N/NS(=O)(=O)c1ccc(C)cc1)C(=NO)/C(C)=N\NS(=O)(=O)c1ccc(C)cc1`, the T/C was 92 % of control under setting [1], 100 % of control under setting [2] and 101 % of control under setting [3].

For the compound `Cc1cc(N(CCCl)CCCl)ccc1C=Nc1ccccc1C(=O)O`, the T/C was 117 % of control under setting [13]; 115 % of control under setting [12]; 150 % of control (dose: 200.0 mg/kg/injection, schedule: Q01DX009 (ip), vehicle: saline with Tween-80).

Take `CCCCCCCCCCCCCCCC(=O)N(C/C=C/CN(CCCN(C)C)C(=O)CCCCCCCCCCCCCCC)CCCN(C)C`: the T/C was 100 % of control (dose: 6.25 mg/kg/injection, schedule: Q01DX009 (ip), vehicle: saline with Tween-80); 90 % of control (dose: 12.5 mg/kg/injection, schedule: Q01DX009 (ip), vehicle: saline with Tween-80); 90 % of control under setting [13].

Turning to `CCOC(=O)C12CCOC1(OC)NC(=O)C=C2C(=O)OC` (stereo unspecified), the T/C runs as follows: (dose: 100.0 mg/kg/injection, schedule: Q04DX003 (ip), vehicle: Klucel (hydroxypropylcellulose) (HPC)) 110 % of control; (dose: 200.0 mg/kg/injection, schedule: Q04DX003 (ip), vehicle: Klucel (hydroxypropylcellulose) (HPC)) 110 % of control; (dose: 400.0 mg/kg/injection, schedule: Q04DX003 (ip), vehicle: Klucel (hydroxypropylcellulose) (HPC)) 118 % of control.

For `O=C1CSC(=S)N1c1ccc(N=Nc2ccccc2)cc1`, the T/C reads like this: under setting [1], 98 % of control; under setting [2], 99 % of control; under setting [3], 86 % of control.

On to `c1cnc(NC(Nc2ncccn2)C2CCCCC2)nc1`, for which the T/C is, setting by setting: under setting [14], 100 % of control; under setting [15], 100 % of control; under setting [16], 94 % of control.

For `CC1OC1C(=O)Sc1ccccc1` (stereo unspecified), the T/C is 105 % of control under setting [10], 110 % of control under setting [11] and 106 % of control under setting [1].

Regarding `O=C(/C=C/c1ccc2c(c1)OCO2)c1cc(Cl)ccc1O`, the T/C under setting [4] was 93 % of control, the T/C under setting [5] was 98 % of control and the T/C under setting [6] was 102 % of control.

With `Cc1ccc(S(=O)(=O)C23N=NC(C)(C)C2N=NC3(C)C)cc1` (stereo unspecified), the T/C is, setting by setting: under setting [14], 101 % of control; under setting [15], 100 % of control; under setting [16], 98 % of control.

For the origin of these results see PubChem BioAssay AID330 (DTP/NCI, 2004).
